This assay addresses CXCR4 (Homo sapiens, UniProt P61073). In words: fura-2 calcium mobilization in C8161 melanoma cells, antagonism of SDF-1. It is filed as cell-based. (A change in cytosolic calcium serves as a functional read-out for many receptors and channels.)
Chain of CXCR4 (P61073 whole entry): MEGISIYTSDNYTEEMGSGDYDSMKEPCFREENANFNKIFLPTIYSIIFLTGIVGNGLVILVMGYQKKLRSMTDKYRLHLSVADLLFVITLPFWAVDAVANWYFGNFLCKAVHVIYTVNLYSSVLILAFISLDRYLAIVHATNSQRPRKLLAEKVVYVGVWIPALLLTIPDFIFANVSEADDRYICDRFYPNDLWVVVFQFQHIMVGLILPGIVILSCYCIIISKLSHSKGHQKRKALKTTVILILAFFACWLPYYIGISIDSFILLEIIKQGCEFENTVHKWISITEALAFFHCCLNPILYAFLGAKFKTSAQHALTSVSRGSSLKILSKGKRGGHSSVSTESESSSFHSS
In general, IC50 refers to the midpoint of a concentration-inhibition curve. With NUCC-388, the IC50 came to 300 nM.

Take NUCC-392: the half-inhibitory concentration (IC50) is 1000 nM.

For NUCC-54120, the IC50 came out at 1000 nM.

(Values after article PMC4960487, “Discovery and characterization of novel small-molecule CXCR4 receptor agonists and antagonists” (Scientific Reports, 2016).)
